Experimental findings from US20110136666A1, “CHEMICAL COMPOUNDS” (SYNGENTA CROP PROTECTION, INC., priority 2008, published 2011) are described below.

The structures appear in SMILES notation.

Data set [1] has as its system Alopecurus myosuroides (ALOMY). The data set can be described thus: Pre-emergence biological efficacy, glasshouse pot test. In kind it is in vivo. To be noted: 312 h, after 13 days, 100=total damage, 0=no damage, read-out: Percentage damage caused to weed species ALOMY. Put shortly: (§1)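 Pots sown with weed seeds, sprayed 1 day after sowing with test compound in acetone/water (50:50) plus 0.5% Tween 20 at 250 or 1000 g/ha. Plants grown in glasshouse at 24/16° C day/night, 14 h light, 65% humidity, watered twice daily. Damage scored visually after 13 days (0 = none, 100 = total).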

For data set [2], the system named is Amaranthus retroflexus (AMARE). Described as above. In kind it is in vivo. The settings on record: 312 h, after 13 days, 100=total damage, 0=no damage, read-out: Percentage damage caused to weed species AMARE. Put shortly: as §1
In data set [3] the test system is Echinochloa crus-galli (ECHCG). Described as above. The settings on record: 312 h, after 13 days, 100=total damage, 0=no damage, read-out: Percentage damage caused to weed species ECHCG. In kind it is in vivo. Put shortly: as §1
For data set [4], the system named is Ipomea hederaceae (IPOHE). The data set is described as above. In kind it is in vivo. To be noted: Ipomoea hederacea, 312 h, after 13 days, 100=total damage, 0=no damage, read-out: Percentage damage caused to weed species IPOHE. Put shortly: as §1
The test system of data set [5] is Setaria faberi (SETFA). The data set is described as above. In kind it is in vivo. The settings on record: 312 h, after 13 days, 100=total damage, 0=no damage, read-out: Percentage damage caused to weed species SETFA. Put shortly:
as §1

Data set [6] concerns Solanum nigrum (SOLNI). The data set is described as above. In kind it is in vivo. The settings on record: 312 h, after 13 days, 100=total damage, 0=no damage, read-out: Percentage damage caused to weed species SOLNI. The procedure, abridged: as §1
For data set [7], the system named is Alopecurus myosuroides (ALOMY). Description: Post-emergence biological efficacy, glasshouse pot test. In kind it is in vivo. To be noted: 312 h, after 13 days, 100=total damage, 0=no damage, read-out: Percentage damage caused to weed species ALOMY. The procedure, abridged: (§2)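 Species sown in soil and grown 8 days in glasshouse (24/16 °C day/night, 14 h light, 65% humidity), then sprayed with compound in acetone/water (50:50) with 0.5% Tween 20 at 250 or 1000 g/ha. Damage scored visually after 13 days (0 = none, 100 = total).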

Data set [8] has as its system Amaranthus retroflexus (AMARE). Described as above. In kind it is in vivo. To be noted: 312 h, after 13 days, 100=total damage, 0=no damage, read-out: Percentage damage caused to weed species AMARE. Put shortly: as §2
Data set [9] has as its system Echinochloa crus-galli (ECHCG). The description is as above. To be noted: 312 h, after 13 days, 100=total damage, 0=no damage, read-out: Percentage damage caused to weed species ECHCG. In kind it is in vivo. Put shortly: as §2
For data set [10], the system named is Ipomea hederaceae (IPOHE). Described as above. In kind it is in vivo. The settings on record: Ipomoea hederacea, 312 h, after 13 days, 100=total damage, 0=no damage, read-out: Percentage damage caused to weed species IPONE. Put shortly:
as §2

Data set [11] has as its system Setaria faberi (SETFA). Described as above. The settings on record: 312 h, after 13 days, 100=total damage, 0=no damage, read-out: Percentage damage caused to weed species SETFA. In kind it is in vivo. Put shortly: as §2
Data set [12] deals with Solanum nigrum (SOLNI). The data set is described as above. The settings on record: 312 h, after 13 days, 100=total damage, 0=no damage, read-out: Percentage damage caused to weed species SOLNI. In kind it is in vivo. Put shortly:
as §2

One may read the melting point as the temperature of the solid-liquid transition.

Consider `Nc1nc(-c2ccccn2)nc(C(=O)O)c1Cl` [Compound 1-149, 4-amino-5-chloro-2-pyridin-2-ylpyrimidine-6-carboxylic acid], for which the melting point was 183 °C (dec.). In addition, the pest or weed control at 1000 g/ha in data set [1] came to 0%. Besides, the pest or weed control at 1000 g/ha in data set [2] is 0%. The pest or weed control at 1000 g/ha in [3] worked out at 0%. For the same molecule, the pest or weed control at 1000 g/ha in [4] was 0%. Further, the pest or weed control at 1000 g/ha in the data set on Setaria faberi (SETFA) [5] came to 0%. Moreover, in the data set with Solanum nigrum (SOLNI) [6], the pest or weed control at 1000 g/ha worked out at 0%. In addition, the pest or weed control at 1000 g/ha in data set [7] worked out at 0%. Besides, the pest or weed control at 1000 g/ha in data set [8] turned out to be 0%. For the same molecule, the pest or weed control at 1000 g/ha in data set [9] amounted to 0%. Also, the pest or weed control at 1000 g/ha in data set [10] amounted to 0%. In addition, in the data set with Setaria faberi (SETFA) [11], the pest or weed control at 1000 g/ha was 0%. The pest or weed control at 1000 g/ha with Solanum nigrum (SOLNI) [12] stood at 0%.
For `COC(=O)c1nc(-c2cccnc2OCC(F)(F)F)nc(N)c1Cl` [Compound 2-166, 4-Amino-5-chloro-6-methoxycarbonyl-2-(2-[2,2,2-trifluoroethoxy]-pyridin-3-yl)-pyrimidine], the pest or weed control at 250 g/ha (in data set [1]; in data set [2]; in data set [3]; in [4]; in the data set with Setaria faberi (SETFA) [5]; in the data set with Solanum nigrum (SOLNI) [6]) was 0% in each case. Further, the pest or weed control at 250 g/ha (in [7]; in data set [8]; in data set [9]; in [10]; in the data set with Setaria faberi (SETFA) [11]; with Solanum nigrum (SOLNI) [12]) was 0% throughout.
With `COC(=O)c1nc(-c2cccnc2F)nc(N)c1Cl` [Compound 2-172, 4-Amino-5-chloro-2-(2-fluoropyridin-3-yl)-6-methoxycarbonyl pyrimidine], the pest or weed control at 250 g/ha (in data set [1]; in data set [2]; in [3]; in data set [4]; with Setaria faberi (SETFA) [5]; in the data set on Solanum nigrum (SOLNI) [6]) was 0% in each case. For the same molecule, the pest or weed control at 250 g/ha was 10% in data set [7]; 0% in data set [8]; 0% in data set [9]; 10% in [10]; 10% with Setaria faberi (SETFA) [11]; 60% in the data set with Solanum nigrum (SOLNI) [12].
In the case of `COC(=O)c1nc(-c2cc(Cl)nc(Cl)c2)nc(N)c1Cl` [Compound 2-179, 4-Amino-5-chloro-2-(2,6-dichloropyridin-4-yl)-6-methoxycarbonyl pyrimidine], the pest or weed control at 1000 g/ha (in data set [1]; in data set [2]; in data set [3]; in data set [4]; with Setaria faberi (SETFA) [5]; in the data set with Solanum nigrum (SOLNI) [6]) was 0% throughout. For the same molecule, the pest or weed control at 1000 g/ha came out at 0% in [7]; 30% in data set [8]; 0% in data set [9]; 40% in data set [10]; 10% with Setaria faberi (SETFA) [11]; 30% in the data set with Solanum nigrum (SOLNI) [12].
As to `COC(=O)c1nc(-c2cnc(OC)nc2)nc(N)c1Cl` [Compound 2-182, 4-Amino-5-chloro-6-methoxycarbonyl-2-(2-methoxypyrimidin-5-yl)-pyrimidine], the pest or weed control at 1000 g/ha in [1] was 0%; in data set [2], 0%; in [3], 0%; in [4], 0%; in the data set on Setaria faberi (SETFA) [5] it was 0%; in the data set with Solanum nigrum (SOLNI) [6], 40%. Also, the pest or weed control at 1000 g/ha in [7] turned out to be 0%; in data set [8], 20%; in data set [9], 0%; in data set [10], 30%; in the data set on Setaria faberi (SETFA) [11], 10%; in the data set on Solanum nigrum (SOLNI) [12], 70%.
`COC(=O)c1nc(-c2cncc3ccccc23)nc(N)c1Cl` [Compound 2-196, 4-Amino-5-chloro-2-isoquinolin-4-yl-6-methoxycarbonyl pyrimidine]: the pest or weed control at 1000 g/ha (in data set [1]; in [2]; in data set [3]; in [4]; with Setaria faberi (SETFA) [5]; with Solanum nigrum (SOLNI) [6]) was 0% in each case. Further, the pest or weed control at 1000 g/ha (in data set [7]; in data set [8]; in [9]; in data set [10]; with Setaria faberi (SETFA) [11]; in the data set on Solanum nigrum (SOLNI) [12]) was 0% each time.
For `CCOC(=O)c1nc(-c2ccc(Cl)s2)nc(N)c1Cl` [Compound 3-2, 4-amino-5-chloro-2-(5-chlorothiophen-2-yl)-6-ethoxycarbonyl-pyrimidine], the pest or weed control at 1000 g/ha in data set [1] was 0%; in [2], 30%; in data set [3], 0%; in [4], 0%; in the data set with Setaria faberi (SETFA) [5], 0%; in the data set with Solanum nigrum (SOLNI) [6], 0%. The pest or weed control at 1000 g/ha stood at 0% in [7]; 80% in [8]; 0% in data set [9]; 50% in data set [10]; 0% in the data set with Setaria faberi (SETFA) [11]; 70% in the data set with Solanum nigrum (SOLNI) [12].
Take `CCOC(=O)c1nc(-c2ccc(C(F)(F)F)cn2)nc(N)c1Cl` [Compound 3-150, 4-amino-5-chloro-6-ethoxycarbonyl-2-(5-trifluoromethylpyridin-2-yl)-pyrimidine]: the pest or weed control at 1000 g/ha (in data set [1]; in [2]; in [3]; in data set [4]; with Setaria faberi (SETFA) [5]; in the data set on Solanum nigrum (SOLNI) [6]) was 0% in each case. The pest or weed control at 1000 g/ha (in [7]; in [8]; in data set [9]; in data set [10]; with Setaria faberi (SETFA) [11]; with Solanum nigrum (SOLNI) [12]) was 0% each time.
With `O=C(O)c1nc(-c2ccccn2)nc(Cl)c1Cl` [Compound 61-149, 4,5-dichloro-2-pyridin-2-ylpyrimidine-6-carboxylic acid], the pest or weed control at 1000 g/ha (in data set [1]; in [2]; in data set [3]; in data set [4]; with Setaria faberi (SETFA) [5]; in the data set on Solanum nigrum (SOLNI) [6]) was 0% throughout. Further, the pest or weed control at 1000 g/ha was 0% in data set [7]; 0% in data set [8]; 0% in [9]; 0% in [10]; 0% in the data set on Setaria faberi (SETFA) [11]; 40% with Solanum nigrum (SOLNI) [12].
